According to BindingDB's records for doi:10.1074/jbc.M501100200 (University of Texas Southwestern Medical Center, 2005):

Experiments:
Test in all cases: DHODH Inhibition Assay
[1] = molecular target: T1, Dihydroorotate dehydrogenase (quinone), mitochondrial (Plasmodium falciparum, UniProt Q54A96); conditions: pH 8; 22 °C
T1 sequence (Q54A96 whole entry): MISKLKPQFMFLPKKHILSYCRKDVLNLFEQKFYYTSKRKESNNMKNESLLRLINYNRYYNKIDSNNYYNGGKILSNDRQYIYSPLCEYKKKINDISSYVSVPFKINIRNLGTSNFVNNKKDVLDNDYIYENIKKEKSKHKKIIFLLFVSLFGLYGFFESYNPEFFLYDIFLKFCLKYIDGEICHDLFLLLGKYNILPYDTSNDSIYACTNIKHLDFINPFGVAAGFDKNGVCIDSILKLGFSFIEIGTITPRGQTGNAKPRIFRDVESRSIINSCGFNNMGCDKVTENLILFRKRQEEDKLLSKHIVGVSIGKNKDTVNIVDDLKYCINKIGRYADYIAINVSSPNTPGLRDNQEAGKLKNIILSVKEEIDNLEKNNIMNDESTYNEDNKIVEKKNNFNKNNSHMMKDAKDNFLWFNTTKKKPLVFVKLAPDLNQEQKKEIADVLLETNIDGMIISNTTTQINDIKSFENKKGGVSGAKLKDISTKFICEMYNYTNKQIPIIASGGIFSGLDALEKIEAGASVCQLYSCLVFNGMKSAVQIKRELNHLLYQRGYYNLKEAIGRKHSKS
Protocol: (§1) The assays were carried out by using a colorimetric DCIP method, which uses the colorimetric reagent 2, 6-dichlorophenolindophenol as the final electron acceptor. DCIP reduction is stoichiometrically equivalent to oxidation of dihydroorotate. Changes in absorbance were quantified on a plate reader and data were analyzed to measure the reduction of DCIP as a decrease in absorbance at 600 nm. For the determination of the IC50 values (concentration of inhibitor required for 50% inhibition) different inhibitor concentrations were applied.

[2] = molecular target: T2, Dihydroorotate dehydrogenase (quinone), mitochondrial [30-395] (Homo sapiens, UniProt Q02127)
T2 construct: 30-395
T2 sequence (Q02127 30-395): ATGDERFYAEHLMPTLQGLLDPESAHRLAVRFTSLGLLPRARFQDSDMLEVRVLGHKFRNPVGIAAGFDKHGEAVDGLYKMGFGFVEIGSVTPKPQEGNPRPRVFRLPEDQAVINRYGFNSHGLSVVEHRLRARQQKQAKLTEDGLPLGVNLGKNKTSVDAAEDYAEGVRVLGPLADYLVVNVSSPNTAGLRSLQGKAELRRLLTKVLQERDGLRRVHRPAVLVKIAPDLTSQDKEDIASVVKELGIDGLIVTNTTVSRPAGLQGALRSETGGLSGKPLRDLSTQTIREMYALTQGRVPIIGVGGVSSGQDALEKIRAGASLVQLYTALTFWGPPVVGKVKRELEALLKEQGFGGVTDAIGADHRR
Protocol: as §1

[3] = molecular target: Dihydroorotate dehydrogenase (quinone), mitochondrial [H185A] (Plasmodium falciparum, UniProt Q54A96, H185A)
Dihydroorotate dehydrogenase (quinone), mitochondrial [H185A], sequence (Q54A96 whole entry H185A): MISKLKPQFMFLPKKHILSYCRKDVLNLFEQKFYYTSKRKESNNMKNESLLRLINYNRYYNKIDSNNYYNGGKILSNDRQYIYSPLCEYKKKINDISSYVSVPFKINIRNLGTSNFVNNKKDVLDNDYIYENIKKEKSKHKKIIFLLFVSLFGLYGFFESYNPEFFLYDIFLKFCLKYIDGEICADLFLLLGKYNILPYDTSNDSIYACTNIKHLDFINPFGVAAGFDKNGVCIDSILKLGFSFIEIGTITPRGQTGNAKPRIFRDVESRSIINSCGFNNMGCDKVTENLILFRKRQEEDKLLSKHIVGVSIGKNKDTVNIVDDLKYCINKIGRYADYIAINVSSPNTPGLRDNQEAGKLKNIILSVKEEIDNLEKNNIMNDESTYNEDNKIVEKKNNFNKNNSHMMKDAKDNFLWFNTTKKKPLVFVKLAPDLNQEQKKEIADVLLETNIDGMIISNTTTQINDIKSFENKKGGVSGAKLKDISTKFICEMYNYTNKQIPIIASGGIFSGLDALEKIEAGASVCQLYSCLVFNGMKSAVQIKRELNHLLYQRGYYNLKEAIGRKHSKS
Protocol: as §1

[4] = molecular target: Dihydroorotate dehydrogenase (quinone), mitochondrial [R265A] (Plasmodium falciparum, UniProt Q54A96, R265A)
Dihydroorotate dehydrogenase (quinone), mitochondrial [R265A], sequence (Q54A96 whole entry R265A): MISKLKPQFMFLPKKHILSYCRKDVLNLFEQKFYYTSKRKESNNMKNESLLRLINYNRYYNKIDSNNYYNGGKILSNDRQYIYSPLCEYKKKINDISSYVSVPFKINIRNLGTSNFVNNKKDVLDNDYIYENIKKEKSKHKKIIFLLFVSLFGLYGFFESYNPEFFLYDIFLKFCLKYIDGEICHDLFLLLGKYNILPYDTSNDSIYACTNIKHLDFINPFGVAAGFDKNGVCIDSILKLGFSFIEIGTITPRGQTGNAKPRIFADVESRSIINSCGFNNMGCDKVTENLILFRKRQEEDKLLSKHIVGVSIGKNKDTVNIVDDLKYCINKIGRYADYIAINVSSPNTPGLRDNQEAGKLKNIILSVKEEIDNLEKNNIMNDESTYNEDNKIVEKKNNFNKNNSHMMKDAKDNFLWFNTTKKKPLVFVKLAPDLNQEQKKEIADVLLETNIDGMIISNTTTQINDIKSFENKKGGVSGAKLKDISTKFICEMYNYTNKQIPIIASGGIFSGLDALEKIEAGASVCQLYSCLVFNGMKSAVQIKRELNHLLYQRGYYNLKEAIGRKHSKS
Protocol: as §1

Row | SMILES | IC50 [1] [µM] | IC50 [2] [µM] | IC50 [3] [µM] | IC50 [4] [µM]
1 | O=C(Nc1ccccc1C(F)(F)F)Nc1cccc2ccccc12 [1-naphthalen-1-yl-3-[2-(trifluoromethyl)phenyl]urea] | 0.4 | > 1000 | > 200 | 0.34
2 | Cc1c(C(=O)Nc2cccc(C(F)(F)F)c2)cccc1[N+](=O)[O-] [2-methyl-3-nitro-N-[3-(trifluoromethyl)phenyl]benzamide] | 0.08 | 150 | 120 | 0.37
3 | Cc1c(C(=O)Nc2cccc3ccccc23)cccc1[N+](=O)[O-] [2-methyl-N-(naphthalen-1-yl)-3-nitrobenzamide] | 0.08 | 100 | 180 | 0.48
4 | COc1ccccc1NC(=O)Nc1cccc2ccccc12 [3-(2-methoxyphenyl)-1-naphthalen-1-ylurea] | 0.23 | 112 | 140 | 0.24
5 | O=C(Nc1ccc(Cl)cc1)Nc1cccc2cccnc12 [3-(4-chlorophenyl)-1-quinolin-8-ylurea] | 0.78 | 116 | > 400 | 2
6 | Cc1c(C(=O)Nc2cc(Cl)cc(Cl)c2)cccc1[N+](=O)[O-] [Asinex compound no. 6] | 0.016 | 200 | 130 | 0.4
7 | Cc1cc(Br)ccc1NC(=O)c1ccc2ccccc2c1 [ChemBridge compound no. 2] | 0.05 | 210 | 570 | 0.05
8 | O=C(Nc1ccc(Cl)cc1Cl)c1ccc2ccccc2c1 [N-(2,4-dichlorophenyl)naphthalene-2-carboxamide] | 0.05 | > 50 | > 50 | 0.08
9 | O=C(Nc1ccccc1F)c1ccc2ccccc2c1 [N-(2-fluorophenyl)naphthalene-2-carboxamide] | 0.47 | 34 | 210 | 0.3
10 | Cc1c(C(=O)Nc2ccc(Cl)c(Cl)c2)cccc1[N+](=O)[O-] [N-(3,4-dichlorophenyl)-2-methyl-3-nitrobenzamide] | 0.08 | 72 | 60 | 2.8
11 | Cc1c(C(=O)Nc2ccc(F)c(F)c2)cccc1[N+](=O)[O-] [N-(3,4-difluorophenyl)-2-methyl-3-nitrobenzamide] | 0.26 | 200 | 250 | 0.82
12 | Cc1c(C(=O)Nc2cccc(Br)c2)cccc1[N+](=O)[O-] [N-(3-bromophenyl)-2-methyl-3-nitrobenzamide] | 0.06 | 105 | 140 | 1.2
13 | Cc1c(C(=O)Nc2ccc(F)c(Cl)c2)cccc1[N+](=O)[O-] [N-(3-chloro-4-fluorophenyl)-2-methyl-3-nitrobenzamide] | 0.1 | 116 | 130 | 0.5
